We go through 16 compounds from patent US7119075B2, “Use of herbal agents for potentiation of bioefficacy of anti infectives” (priority 2003, dated 2006).

Molecules are shown by their SMILES. ≈ marks a conversion by molar mass, not a printed value.

For assay [1], the system named is M. tuberculosis. The experiment in a line: MIC of drugs alone and with bioenhancer (Table 7). The class given is cell-based. The conditions noted are these: for MIC: Mycobacterium tuberculosis, Drug alone.
The test system of assay [2] is Gram positive bacteria. The experiment in a line: organism not typed. The class given is cell-based. The conditions noted are these: for MIC: read-out: MIC Drug alone.
In assay [3] the test system is Gram negative bacteria. The experiment in a line: organism not typed. The class given is cell-based. The conditions noted are these: for MIC: read-out: MIC Drug alone.
For assay [4], the system named is Yeast. The assay is described as follows: MIC of drugs alone and with bioenhancer (Table 7). The class given is cell-based. The conditions noted are these: for MIC: Saccharomyces cerevisiae, read-out: MIC Drug alone.
Assay [5] has as its system Filamentous fungi. The assay is described as follows: organism not typed. The class given is cell-based.
The subject of assay [6] is MRSA 450. The assay is described as follows: microbe, parasite or virus in culture. The conditions noted are these: Staphylococcus aureus.
Assay [7] concerns MRSA 15187. The experiment in a line: microbe, parasite or virus in culture. The conditions noted are these: Staphylococcus aureus.

Regarding `NCC[C@H](O)C(=O)N[C@@H]1C[C@H](N)[C@@H](O[C@H]2O[C@H](CN)[C@@H](O)[C@H](O)[C@H]2O)[C@H](O)[C@H]1O[C@H]1O[C@H](CO)[C@@H](O)[C@H](N)[C@H]1O` [Amikacin], the MIC in assay [1] is 0.5 to 1 µg/mL; in assay [2], 2 to 32 µg/mL (≈ 3.42 to 54.6 µM); in assay [3], 0.12 to 4 µg/mL (≈ 0.205 to 6.83 µM).
As to `C[C@@H]1[C@H](O)[C@@H](C)/C=C/C=C/C=C/C=C/C=C/C=C/C=C/[C@H](O[C@@H]2O[C@H](C)[C@@H](O)[C@H](N)[C@@H]2O)C[C@@H]2O[C@](O)(C[C@@H](O)C[C@@H](O)[C@H](O)CC[C@@H](O)C[C@@H](O)CC(=O)O[C@H]1C)C[C@H](O)[C@H]2C(=O)O` [Amphotericin B], the “MIC Drug alone” value in assay [4] (Drug alone) was 0.25 to 2.0 µg/mL; in assay [5] (Drug alone), 0.25 to 4 µg/mL.
As to `N[C@@H](C(=O)N[C@@H]1C(=O)N2C(C(=O)O)=C(Cl)CS[C@H]12)c1ccccc1` [Cefaclor], the figures for the MIC in assay [2] and in assay [3] were 0.06 to 32 µg/mL (≈ 0.163 to 87 µM) and 0.25 to 64 µg/mL (≈ 0.68 to 174 µM), respectively.
As for `C=CC1=C(C(=O)O)N2C(=O)[C@@H](NC(=O)/C(=N\O)c3csc(N)n3)[C@H]2SC1` [Cefdinir], the MIC in assay [2] fell in the range of 0.06 to 32 µg/mL (≈ 0.152 to 80.9 µM); in assay [3], 0.25 to 64 µg/mL (≈ 0.632 to 162 µM).
With `COCC1=C(C(=O)O)N2C(=O)[C@@H](NC(=O)/C(=N\OC)c3csc(N)n3)[C@H]2SC1` [Cefpedoxime], the figures for the “MIC Drug alone” value in assay [2] and in assay [3] were 0.12 to 16 µg/mL and 0.03 to 64 µg/mL, respectively.
Taken in the same sequence, the figures for `CO/N=C(\C(=O)N[C@@H]1C(=O)N2C(C(=O)O)=C(CSc3nc(=O)c(O)nn3C)CS[C@H]12)c1csc(N)n1` [Ceftrioxone] were 0.12 to 32 µg/mL and 0.03 to 32 µg/mL.
On to `O=C(O)c1cn(C2CC2)c2cc(N3CCNCC3)c(F)cc2c1=O` [Ciprofloxacin], for which the MIC in assay [6] was 64 µg/mL (≈ 193 µM); in assay [1], 0.5 to 1 µg/mL; in assay [2] it was 0.12 to 32 µg/mL (≈ 0.362 to 96.6 µM); in assay [3], 0.03 to 0.5 µg/mL (≈ 0.0905 to 1.51 µM); in assay [7], 64 µg/mL (≈ 193 µM).
On to `CC[C@@H](CO)NCCN[C@@H](CC)CO` [Ethambutol], for which the MIC in assay [1] was 1 to 5 µg/mL.
Take `OC(Cn1cncn1)(Cn1cncn1)c1ccc(F)cc1F` [Fluconazole]: the MIC in assay [4] was 0.12 to 64 µg/mL.
As for `NNC(=O)c1ccncc1` [Isoniazid], the MIC in assay [1] lay in the range of 0.12 to 32 µg/mL.
`CC(=O)N1CCN(c2ccc(OCC3COC(Cn4ccnc4)(c4ccc(Cl)cc4Cl)O3)cc2)CC1` (centres unmarked) [Ketoconazole]: the MIC in assay [4] is 0.12 to 0.5 µg/mL; in assay [5] (read-out: MIC Drug alone), 0.25 to 2 µg/mL (≈ 0.47 to 3.76 µM).
Take `CCn1cc(C(=O)O)c(=O)c2cc(F)c(N3CCNCC3)cc21` [Norfloxacin]: the MIC in assay [2] was 0.12 to 32 µg/mL (≈ 0.376 to 100 µM). The “MIC Drug alone” value in assay [3] lay within 0.03 to 64 µg/mL.
With `CC1COc2c(N3CCN(C)CC3)c(F)cc3c(=O)c(C(=O)O)cn1c23` (centres unmarked) [Ofloxacin], the “MIC Drug alone” value in assay [1] was in the range of 0.5 to 25 µg/mL. Moreover, the figures for the MIC in assay [1], in assay [2] and in assay [3] were 0.5 to 2.5 µg/mL, 0.12 to 32 µg/mL (≈ 0.332 to 88.6 µM) and 0.06 to 32 µg/mL (≈ 0.166 to 88.6 µM), respectively.
Regarding `NC(=O)c1cnccn1` [Pyrazinamide], in assay [1], the MIC lay within 6 to 60 µg/mL.
As to `CO[C@H]1/C=C/O[C@@]2(C)Oc3c(C)c(O)c4c(O)c(c(/C=N/N5CCN(C)CC5)c(O)c4c3C2=O)NC(=O)/C(C)=C\C=C\[C@H](C)[C@H](O)[C@@H](C)[C@@H](O)[C@@H](C)[C@H](OC(C)=O)[C@@H]1C` [Rifampicin], the MIC in assay [1] lay in the range of 0.06 to 0.5 µg/mL.
As to `CN[C@H](CC(C)C)C(=O)N[C@H]1C(=O)N[C@@H](CC(N)=O)C(=O)N[C@H]2C(=O)N[C@H]3C(=O)N[C@H](C(=O)N[C@H](C(=O)O)c4cc(O)cc(O)c4-c4cc3ccc4O)[C@H](O)c3ccc(c(Cl)c3)Oc3cc2cc(c3O[C@@H]2O[C@H](CO)[C@@H](O)[C@H](O)[C@H]2O[C@H]2C[C@](C)(N)[C@H](O)[C@H](C)O2)Oc2ccc(cc2Cl)[C@H]1O` [Vancomycin], the MIC in assay [2] lay in the range of 0.03 to 8 µg/mL (≈ 0.0207 to 5.52 µM).
